Laboratory results taken from patent publication US5441894A, “Device containing a light absorbing element for automated chemiluminescent immunoassays” (Abbott Laboratories, priority 1993, dated 1995).

Test system: Anti-phencyclidine antibodies
Test: Ion-Capture Competitive Binding Assay For Phencyclidine (PCP) in Urine

## c1ccc(C2(N3CCCCC3)CCCCC2)cc1 [PCP, phencyclidine]
25 ng/mL PCP in urine, Side A
  % Bound: 83.00%
25 ng/mL PCP in urine, Side B
  % Bound: 85.50%
60 ng/mL PCP in urine, Side A
  % Bound: 94.60%
60 ng/mL PCP in urine, Side B
  % Bound: 94.19%
120 ng/mL PCP in urine, Side A
  % Bound: 97.44%
120 ng/mL PCP in urine, Side B
  % Bound: 97.54%
250 ng/mL PCP in urine, Side A
  % Bound: 99.28%
250 ng/mL PCP in urine, Side B
  % Bound: 99.32%
500 ng/mL PCP in urine, Side A
  % Bound: 100.00%
500 ng/mL PCP in urine, Side B
  % Bound: 100.00%
